Data reported in patent US20160168186A1, “Method of Treating Dengue Fever” (RIBOSCIENCE LLC, priority 2011, published 2016).
Like-named read-outs stand apart in the source and are kept apart here.

Tests used:
[1] = test system: dengue; conditions: cited from earlier work
[2] = test system: dengue; conditions: by inhibiting the dengue 2′-O-methyltransferase NS5 domain; cited from earlier work
[3] = test system: dengue; conditions: mouse model; cited from earlier work
[4] = test system: H241: dengue virus serotype 4; test: Dendritic Cells Infection Assay (viral RNA by real time PCR); type: cell-based; conditions: Dendritic cell, human primary immature monocyte derived dendritic cells, MOI 2, 24 h, dengue RNA relative to 18S rRNA
Protocol: Cryopreserved human immature monocyte derived Dendritic Cells (iDC) from individual donors were obtained from Stemcell Technologies (CAT# PB-DC001F). iDC were counted and incubated at a concentration of 15,000 cells/well (96 well plate) in RPMI 1640 media containing 10% (v/v) fetal bovine serum (FBS), 1% (v/v) penicillin/streptomycin (Invitrogen™) for 48 h at 37° C. in a 90% humidified, 5% CO2 atmosphere prior to the start of the experiment.
In a 96 well flat-bottom plate, 15000 iDC from individual donors were infected with dengue virus at a multiplicity of infection (MOI) of 2 in a volume of 50 μl for 2 h. After Infection iDCs were washed and cultured in complete RPMI media in the presence of serially diluted compounds. Each virus/drug combination was tested either in duplicate or triplicate (Depending on the availability of iDC from individual donors). Plates were incubated for 24 h at 37° C. in a 90% humidified, 5% CO2 atmosphere. After 24 h cells were washed and cellular RNA were isolated. Viral RNA and endogenous 18S rRNA control (Applied Bio Systems) was quantified by a real time PCR assay. The viability of mock-infected and infected iDC were monitored at described time points using a CellTiter Glo® (promega) assay according to manufacturer's recommendation.
Cellular RNA was isolated by PerfectPure™ RNA 96 cell kit (5 PRIME) according to manufacturer's recommendation. Transcriptor First Strand cDNA Synthesis Kit (Roche) was used to generate cDNA using random hexamer primers. […] First ΔCt was calculated by subtracting the 18S rRNA CT value from the dengue RNA CT value. ΔCts from duplicate taqman assay were averaged. […] Relative quantification was calculated using the following formula. Relative quantification=2^−averageΔΔCT. […]

Compound	adverse effects ([1]; mouse model or rhesus monkey model, text does not say which)	protection against dengue ([1]; rhesus monkey model)	activity against dengue in tissue culture [2]	protection against dengue [3]	IC50 [4] [µM]
NC(=O)c1ncn([C@@H]2O[C@H](CO)[C@@H](O)[C@H]2O)n1 [Ribavirin]	induced anemia and thrombocytosis	did not show protection	works against dengue in tissue culture	did not show protection	–
[N-]=[N+]=N[C@]1(COP(=O)(N[C@@H](Cc2ccccc2)C(=O)OCc2ccccc2)Oc2cccc3ccccc23)O[C@@H](n2ccc(=O)[nH]c2=O)[C@H](O)[C@@H]1O (stereo partly drawn) [Compound I-9, (S)-2-[[(2R,3S,4R,5R)-2-Azido-5-(2,4-dioxo-3,4-dihydro-2H-pyrimidin-1-yl)-3,4-dihydroxy-tetrahydro-furan-2-ylmethoxy]-(naphthalen-1-yloxy)-phosphorylamino]-3-phenyl-propionic acid benzyl ester]	–	–	–	–	16
CCOC(=O)[C@H](Cc1ccccc1)NP(=O)(OC[C@@]1(N=[N+]=[N-])O[C@@H](n2ccc(=O)[nH]c2=O)[C@H](O)[C@@H]1O)Oc1cccc2ccccc12 (stereo partly drawn) [Compound I-10, (S)-2-[[(2R,3S,4R,5R)-2-Azido-5-(2,4-dioxo-3,4-dihydro-2H-pyrimidin-1-yl)-3,4-dihydroxy-tetrahydro-furan-2-ylmethoxy]-(naphthalen-1-yloxy)-phosphorylamino]-3-phenyl-propionic acid ethyl ester]	–	–	–	–	15
C[C@H](NP(=O)(OC[C@@]1(N=[N+]=[N-])O[C@@H](n2cnc3c(N)ncnc32)[C@H](O)[C@@H]1O)Oc1ccccc1)C(=O)OCc1ccccc1 (stereo partly drawn) [Compound I-2, (S)-2-{[(2R,3S,4R,5R)-5-(6-Amino-purin-9-yl)-2-azido-3,4-dihydroxy-tetrahydro-furan-2-ylmethoxy]-phenoxy-phosphorylamino}-propionic acid benzyl ester]	–	–	–	–	1.9
